Data set [1] deals with 3D7 (chloroquine-susceptible) strain of Plasmodium falciparum. The data set is described as follows: Antiplasmodial screen, parasite lactate dehydrogenase (pLDH) assay, 3D7 strain. The class given is cell-based. Conditions: for Activity against 3D7 IC95 / Activity against 3D7 IC50: P. falciparum 3D7, pLDH assay; for IC50: Plasmodium falciparum. The procedure: (§1) The 3D7 (MRA-102), and Dd2 (MRA-615) strains were kindly donated by BEI-Resources (MR4, Manassas, VA, USA), and maintained in continuous culture, with back up stored in liquid nitrogen.
(§2) The laboratory strains of P. falciparum were grown and maintained in culture using the method of Trager and Jensen with some modifications. All the chemicals except Albumax II (Gibco; Invitrogen, USA), were ordered from Sigma-Aldrich Inc (Germany). The cultures were monitored and parasitemia assessed using both fluorescence (acridine orange) and normal light (Giemsa stain) microscopes.
(§3) The antiplasmodial screen was carried out in 96-well microtitration plates as described by Desjardins et al. with some modifications. The different drug stock solutions were prepared by predisolving the powder in DMSO (200 µL for a final volume of 10 mL stock solution) and subsequently with the culture medium. The parasitaemia was measured using the parasite lactate dehydrogenase (pLDH) assay as previously described.
(§4) Each product was tested in triplicate, in two to three separate experiments, giving a total of six to nine repeats per product and per concentration tested. The IC50 and CC50 values obtained from the replicates were pooled and expressed as geometric mean IC50 and standard deviation. The different means were compared among themselves by independent samples t-test.

Data set [2] relates to Dd2 (multidrug-resistant) strain of Plasmodium falciparum. Briefly: Antiplasmodial screen, parasite lactate dehydrogenase (pLDH) assay, Dd2 strain. The class given is cell-based. Conditions: for Activity against Dd2 IC95 / Activity against Dd2 IC50: P. falciparum Dd2, pLDH assay; for IC50: Plasmodium falciparum. The procedure: as §1, §2, §3, §4
The subject of data set [3] is LLC-MK2 monkey kidney epithelial cells. The data set is described as follows: Cytotoxicity on LLC-MK2 cells. Type of data set: cell-based. Conditions: SI = CC50/IC50, LLC-MK2 vs Dd2. The procedure:
(§5) The cytotoxicity of the extracts and pure compounds were estimated on LLC-MK2 monkey kidney epithelial cells as previously described with some modifications. The cell line was ordered from the American Type Culture Collection (ATCC, Manassas, Virginia, USA) and maintained in continuous culture.
as §4
(§6) The selectivity index defined as SI = CC50/IC50 was equally considered for compounds with mild cytotoxicity with SI<10 for toxic products. Based on these cut-off values, all products isolated from D. edulis in the present study were non-toxic against the LLC-MK2 cell-line.

The nature of data set [4]: Cytotoxicity on LLC-MK2 cells. The class given is cell-based, monkey. Conditions: monkey, LLC-MK2 cells, read-out: Cytotoxicity against LLC-MK2 CC50. The procedure:
as §5, §4, §6

Data set [5] deals with Dd2. The data set is described as follows: Stage-specific activity: variation of IC50 with exposure time, sorbitol-synchronized ring stage culture. Type of data set: cell-based. Conditions: Plasmodium falciparum. From the text: As a preliminary study towards the understanding of the mechanisms of action of the active drugs, the stage-specific activity of the products was studied by investigation of the variation in IC50 values with exposure time.
Figure 2 Variation of IC50 against Dd2 with exposure time. […] The IC50 values presented were obtained from two distinct experiments run in duplicate each.

Data set [6] has as its system Dd2. The data set is described as follows: Drug-interaction study, fixed-ratio combinations, FIC / Combination Index / isobologram. The class given is cell-based, Plasmodium falciparum. Conditions: for Increase of activity on combining DES4 and quinine: DES4 plus quinine. The procedure: From the results obtained with individual drugs, a stock solution of 32 x IC50 of each drug was prepared and used in preparing a series of six combinations ([1]–[6]) containing 5:0, 4:1, 3:2, 2:3, 1:4 and 0:5 proportions volume:volume of Drug A versus Drug B respectively. Each of these formulations were then tested and their different inhibitory concentrations determined separately.
IC50 values obtained for the different drug mixtures were used to calculate the Fractional Inhibitory Concentration (FIC) for each drug as described previously. FIC-A for example measures how much the presence of Drug B affects the activity of Drug A in the mixture, and vis versa.
FIC−A=IC50−A(comb.)/IC50−A(alone)
FIC−B=IC50−B(comb.)/IC50−B(alone)
A graph was constructed with the axes representing the mean FIC of linear scales, with mean FIC-A on the x axis and FIC-B on the y axis. When the combination is additive, the isobole which is the line joining the points that represent all the (x, y) points is straight. Synergistic combinations give concave isoboles, and antagonistic combinations give convex isoboles.
CI values were therefore calculated separately for both the drugs present in combinations 2 through 5; combinations 1 and 6 containing Drug A and Drug B alone. In addition to analyzing the result obtained with each drug combination formula, an overall mean CI value for the four combinations was determined to conclude on the interaction patterns of the two drugs being tested. Synergy or antagonism was defined as a mean CI< or >1, respectively, and lack of interaction (also termed additivity) defined as CI= 1 [21].
IC50 values were used to calculate the Fractional Inhibitory Concentration (FIC) for each drug as described previously. FIC-A measures how much the presence of a Drug B affects the activity of Drug-A in the mixture. […] Statistical significance was defined as p<0.05. A graph was constructed with the axes representing the mean FIC of linear scales, with mean FIC-A on the x-axis and FIC-B on the y-axis. When the combination is additive, the isobole which is the line joining the points that represent all the (x, y) points is straight. Synergistic combinations give concave isoboles, and antagonistic combinations give convex isoboles.
The overall mean CI value for the four combinations formulae was finally determined and synergy or antagonism between the two drugs in combination, defined as a mean CI< or >1, respectively, lack of interaction or additivity defined as CI = 1 [21].

Where [7] appears, read: 3D7, P. falciparum 3D7, pLDH assay, read-out: Activity against 3D7 IC50.
The mark [8] stands for this setting: DD2, P. falciparum Dd2, pLDH assay, read-out: Activity against Dd2 IC50.
Where [9] appears, read: 3D7, read-out: Activity against 3D7 IC50, P. falciparum 3D7, pLDH assay.
[10] abbreviates: DES4 combined with quinine, Dd2.
[11] abbreviates: Dd2, synchronized ring stage, 24 hours exposure, read-out: IC50 against Dd2, exposure time 24 hours.
Where [12] appears, read: Dd2, synchronized ring stage, 48 hours exposure, read-out: IC50 against Dd2, exposure time 48 hours.

Each structure is given as a SMILES string. ≈ marks a conversion by molar mass, not a printed value. Entries after “also recorded” stand apart in the source; their conditions may differ. Read-outs that look alike come from different tables or passages of the source.

The IC50 is the concentration at which inhibition is half-maximal. The term CC50 denotes the concentration giving 50% cytotoxicity.

As for `CO[C@H]1O[C@@H]2O[C@@]3(C)CC[C@H]4[C@H](C)CC[C@@H]([C@H]1C)[C@@]24OO3` [ART, artemether, reference compound], the “Activity against 3D7 IC95” value in data set [1] worked out at 0.08 ± 0.02 µg/mL. For the same compound, the values for the IC50 in data set [1] (setting [7]) and in data set [2] (setting [8]) were 0.02 ± 0.01 µg/mL (≈ 0.067 µM) and 0.03 ± 0.01 µg/mL (≈ 0.101 µM), respectively. The “Activity against Dd2 IC95” value in data set [2] was 0.12 ± 0.09 µg/mL.
Consider `C[C@@H]1O[C@@H](Oc2c(-c3ccc(O)c(O)c3)oc3cc(O)cc(O)c3c2=O)[C@H](O)[C@H](O)[C@H]1O` [DES1, Quercitrin], for which, in data set [3], the “Selectivity index/Dd2” value is reported as over 44. In addition, the CC50 in data set [4] was over 100 µg/mL. Moreover, in data set [1], the “Activity against 3D7 IC50” value was determined as 5.96 ± 0.51 µg/mL and the “Activity against 3D7 IC95” value came out at 18.53 ± 3.13 µg/mL. In addition, in data set [1] (setting [9]), the IC50 is under 10 µg/mL. In the data set on Dd2 [5] (DD2, 24 h, read-out: IC50 against Dd2, exposure time 24 hours), the half-maximal inhibitory concentration (IC50) amounted to 1.41 µg/mL (≈ 3.14 µM). The IC50 in the data set with Dd2 [5] (DD2, 48 h, read-out: IC50 against Dd2, exposure time 48 hours) was 2.19 µg/mL (≈ 4.88 µM). For the same compound, in data set [2], the “Activity against Dd2 IC50” value is “below 10 µg/mL” and the “Activity against Dd2 IC95” value was found to be 23.82 ± 6.35 µg/mL.
Consider `C[C@@H]1O[C@@H](Oc2c(-c3ccc(O)cc3)oc3cc(O)cc(O)c3c2=O)[C@H](O)[C@H](O)[C@H]1O` [DES2, Afzelin], for which, in data set [3], the “Selectivity index/Dd2” value was over 5. Besides, the CC50 in data set [4] was over 100 µg/mL. In data set [1], the “Activity against 3D7 IC95” value amounted to 13.64 ± 0.48 µg/mL. Besides, in data set [1] (setting [9]), the IC50 is 4.59 ± 0.21 µg/mL (≈ 10.6 µM). In addition, in data set [2], the “Activity against Dd2 IC50” value is “inactive” and the “Activity against Dd2 IC95” value stood at 35.03 ± 3.52 µg/mL. For the same compound, the IC50 in data set [2] (DD2, read-out: Activity against Dd2 IC50, P. falciparum Dd2, pLDH assay) amounted to 19.3 ± 1.56 µg/mL (≈ 44.7 µM).
Turning to `O=c1c(O)c(-c2ccc(O)c(O)c2)oc2cc(O)cc(O)c12` [DES3, Quercetin], in data set [3], the “Selectivity index/Dd2” value is recorded as over 17. In addition, the CC50 in data set [4] was over 100 µg/mL. Also, in data set [1], the “Activity against 3D7 IC50” value was 6.07 ± 0.34 µg/mL and the “Activity against 3D7 IC95” value came to 15.19 ± 3.88 µg/mL. In addition, in data set [1] (setting [7]), the IC50 was under 10 µg/mL. Also, in data set [2], the “Activity against Dd2 IC50” value was determined as 5.91 ± 0.97 µg/mL and the “Activity against Dd2 IC95” value is 15.96 ± 4.79 µg/mL. For the same compound, the IC50 in data set [2] (setting [8]) was under 10 µg/mL.
In the case of `COC(=O)c1cc(O)c(O)c(O)c1` [DES4, methyl 3,4,5-trihydroxybenzoate], the “Selectivity index/Dd2” value in data set [3] is given as over 182. In addition, the CC50 in data set [4] is over 100 µg/mL. Besides, the “Combination Index, overall value” in the data set with Dd2 [6] (DES4 combined with artemether) was found to be 1.10. Further, the “Interaction pattern with artemether” value in the data set with Dd2 [6] (DES4 combined with artemether) is listed as “additivity; also recorded: only additive effects”. Also, the “Combination Index, Combination 2” value in the data set with Dd2 [6] (DES4 combined with quinine, Combination 2 (4:1), Dd2) was found to be 1.05. For the same compound, in the data set with Dd2 [6] (setting [10]), the “Combination Index, mean value” worked out at 0.65. Besides, the “Interaction pattern with quinine” value in the data set with Dd2 [6] (setting [10]) is “synergy; also recorded: synergistic interactions”. Further, the “Increase of activity on combining DES4 and quinine” value in the data set on Dd2 [6] is 3 fold. For the same compound, in data set [1], the “Activity against 3D7 IC95” value turned out to be 2.58 ± 2.04 µg/mL. For the same compound, the IC50 was 0.37 ± 0.07 µg/mL (≈ 2.01 µM) in data set [1] (setting [7]), 6.32 µg/mL (≈ 34.3 µM) in the data set on Dd2 [5] (setting [11]) and 0.56 µg/mL (≈ 3.04 µM) in the data set with Dd2 [5] (setting [12]). Moreover, the “Activity against Dd2 IC95” value in data set [2] came to 5.89 ± 0.95 µg/mL.
Take `CC[C@H](CCC(C)C1CCC2C3CC=C4C[C@@H](O[C@@H]5O[C@H](CO)[C@@H](O)[C@H](O)[C@H]5O)CC[C@]4(C)C3CC[C@]12C)C(C)C` (stereo partly drawn) [DES5, sitosterol 3-O-β-D-glucopyranoside sterol]: the “Selectivity index/Dd2” value in data set [3] is given as over 18. For the same compound, the CC50 in data set [4] (LLC-MK2 monkey kidney epithelial cells) was over 100 µg/mL. In data set [1], the “Activity against 3D7 IC50” value worked out at 1.90 ± 0.22 µg/mL and the “Activity against 3D7 IC95” value came out at 4.38 ± 0.87 µg/mL. Also, the “Activity against 3D7 IC50” value in data set [1] (listed as Sitosterol 3-O-β-D-glucopyranoside) is reported as “below 10 µg/mL”. Moreover, in data set [2], the “Activity against Dd2 IC50” value worked out at 5.34 ± 0.98 µg/mL and the “Activity against Dd2 IC95” value was determined as 21.35 ± 0.44 µg/mL. In data set [2] (setting [8]), the IC50 is under 10 µg/mL.
As for `C=C[C@H]1C[N@@]2CC[C@H]1C[C@H]2[C@H](O)c1ccnc2ccc(OC)cc12` [QN, Quinine sulphate, reference compound], in the data set on Dd2 [6], the “Increase of activity on combining DES4 and quinine” value was determined as 6 fold. The “Activity against 3D7 IC95” value in data set [1] was determined as 0.48 ± 0.10 µg/mL. Besides, the IC50 was determined as 0.13 ± 0.01 µg/mL in data set [1] (setting [7]), 0.21 µg/mL with Dd2 [5] (setting [11]), 0.18 µg/mL in the data set with Dd2 [5] (setting [12]) and 0.12 ± 0.01 µg/mL in data set [2] (setting [8]). In data set [2], the “Activity against Dd2 IC95” value was determined as 0.38 ± 0.08 µg/mL.

Source of the values: paper PMC3836662, “New Antimalarial Hits from Dacryodes edulis (Burseraceae) - Part I: Isolation, In Vitro Activity, In Silico “drug-likeness” and Pharmacokinetic Profiles” (PLoS ONE, 2013).
